Measurements taken from PMC6268972, “Antiproliferative, Antimicrobial and Apoptosis Inducing Effects of Compounds Isolated from Inula viscosa” (Molecules, 2012).
In brackets after ≈: the same amount, converted by molar mass. Entries after “also recorded” stand apart in the source; their conditions may differ.

How the values were obtained:
Candida albicans = assay: Microtiter plate dilution MIC, C. albicans; format: cell-based; details: Candida albicans, ATCC90028; ATCC 90028, malt extract broth, 24 h, 100% inhibition; read-out: Minimum inhibitory concentration (MIC) C.a
Description: (§1) The microbial strains used in this study were Escherichia coli (ATCC 10798), Salmonella typhimurium (ATCC14028), Methicillin resistant Staphylococcus aureus (MRSA, Clinical isolate), Bacillus cereus (Toxigenic strain TS), and Candida albicans (ATCC 90028). Bacterial strains were stocked onto nutrient agar slant at 4 °C, and Candida albicans was stocked onto malt agar slant at 4 °C.
(§2) The microtiter plate dilution method was used to determine the MIC (minimum inhibitory concentration) of compounds under study. Sterile 96-well microplates (Nunc) were used for the assay. Stock compounds were dissolved in DMSO so that the final concentrations in micro wells were less than 1% DMSO and solvent controls were run at these concentrations. Positive controls of penicillin G and tetracycline (Oxoid, Hampshire, UK) were prepared at the following concentrations 2, 4, 8, 16, 31, 62.5, 125, and 250 μg/mL. 1% DMSO was used as a solvent control. Compounds were diluted to twice the desired initial test concentration (250 µg/mL) with Muller Hinton broth (MHB) (Oxoid). All wells, except the first were filled with MHB (50 μL). Compounds (100 μL) were added to the first well and serial two-fold dilutions were made down to the desired minimum concentration (2 μg/mL). An over-night culture of bacteria suspended in MHB was adjusted to turbidity equal to 0.5 McFarland standard. The plates were inoculated with bacterial suspension (50 μL/well) and incubated at 37 °C for 24 h. Then the turbidity was measured using micro-plate reader (Biotek) at 620 nm wavelength. The same procedure was used to determine the antifungal activity of compounds against Candida albicans. The medium used was malt extract broth. The yeast cells were suspended in 0.85% saline, with an optical density equivalent to 0.5 McFarland standard, and diluted 1:100 in malt extract broth to obtain the working concentration. After 24 h incubation with each compound, the turbidity was measured at 530 nm wavelength using a spectrophotometer (Biotek). Percentage inhibition for tested microorganisms was calculated using the following formula:
(§3) MIC was determined as the lowest concentration of the compound that causes complete inhibition (100%) of each microorganism.

MCF-7 cells [1] = assay: Scanning electron microscopy of MCF-7 cells; format: cell-based, human; details: 15 µg/mL compound (vincristin sulfate 40 nM), 48 h
Description: (§4) MCF-7 cells were cultured in complete DMEM containing either 15 µg/mL of 3-O-methylquercetin or 3,3′-di-O-methylquercetin and incubated for 48 h in humidified CO2 incubator. Negative control cells were incubated with complete DMEM and positive control cells received complete DMEM containing 40 nM vincristin sulfate. Treated cells were fixed with 3% glutaraldehyde for 1.5 h followed by osmium tetroxide (2% in PBS) for 1 h. After fixation, cells were washed in PBS and sequentially dehydrated using 30%, 70%, and 100% ethanol. Fixed cells were attached to a metal stubs and sputter coated with platinum by using Emitech K550X coating unit (Qourum Technology, West Sussex, UK). The coated specimens were viewed using Inspect F50/FEG scanning electron microscope (FEI, Eindhoven, The Netherlands) at accelerating voltage of 2–5 kV. Bacillus cereus cells treated with 3,3′-di-O-methylquercetin for 24 h were collected by centrifugation and washed with sodium phosphate buffer. Following that, the samples were fixed in 2.5% glutaraldehyde in 0.1 M phosphate buffer, pH 7.3, at 4 °C overnight, and postfixed in 1% osmium tetroxide in the phosphate buffer for 1 h at room temperature. Bacterial cells were dehydrated with sequential ethanol concentrations (30–100%) and coated for the observations under scanning electron microscope.

MCF-7 cells [2] = assay: MTT antiproliferative activity assay, MCF-7; format: cell-based, human; details: Homo sapiens, MCF7; MTT, 48 h treatment, average of three replicates; read-out: IC50 MCF-7
Description: (§5) Hep-2 (larynx carcinoma, ATCC: CCL-23), MCF-7 (breast epithelial adenocarcinoma, ATCC: HTB-22), and Vero (African green monkey kidney, ATCC: CCL-81) cell lines were kindly provided by Dr. Mona Hassuneh (Department of Biological Sciences, University of Jordan). Cells were grown in Minimum Essential Medium Eagle (Gibco, Paisley UK) supplemented with 10% heat inactivated fetal bovine serum (Gibco, Paisley UK), 29 μg/mL L-glutamine, and 40 μg/mL gentamicin. Cells were incubated in a humidified atmosphere of 5% CO2 at 37 °C.
(§6) The antiproliferative activity of Inula viscosa compounds was measured using the MTT (3-(4,5-dimethylthiazol-2-yl)-2,5-diphenyltetrazolium bromide) assay (Promega, Madison, WI, USA). The assay detects the reduction of MTT by mitochondrial dehydrogenase to blue formazan product, which reflects the normal function of mitochondria and cell viability. Exponentially growing cells were washed and seeded at 17,000 cells/well for Hep-2 cell line and 11,000 cells/ well for MCF-7 cell line (in 200 μL of growth medium) in 96 well microplates (Nunc, Roskilde, Denmark). After 24 h incubation, a partial monolayer was formed then the media was removed and 200 μL of the medium containing the compound (initially dissolved in DMSO) were added and re-incubated for 48 h. Then 100 μL of the medium were aspirated and 15 μL of the MTT solution were added to the remaining medium (100 μL) in each well. After 4 h contact with the MTT solution, blue crystals were formed. One hundred μL of the stop solution were added and incubated further for 1 h.
(§7) Reduced MTT was assayed at 550 nm using a microplate reader (Biotek, Winooski, VT, USA). Control groups received the same amount of DMSO (0.1%).Untreated cells were used as a negative control while, cells treated with vincristine sulfate were used as a positive control. Eight concentrations (150, 100, 50, 20, 10, 5, 2, and 1 μg/mL) were prepared from each compound and tested against the three cell lines. IC50 values were calculated as the concentrations that show 50% inhibition of proliferation on any tested cell line. Stock solutions of the compounds were dissolved in (DMSO) then diluted with the medium and sterilized using 0.2 μm membrane filters. The toxicity of DMSO was determined and the final dilution of compounds used for treating the cells contained not more than 0.1% (non toxic concentration) DMSO. IC50 values were reported as the average of three replicates. The antiproliferative effect of the tested compounds was determined by comparing the optical density of the treated cells against the optical density of the control (cells treated with media containing 0.1% DMSO).

Vero cells = assay: MTT antiproliferative activity assay, Vero; format: cell-based, African green monkey; details: Chlorocebus sabaeus, Vero; MTT, 48 h treatment, average of three replicates; read-out: IC50 Vero
Description: as §5, §6, §7

Escherichia coli = assay: Microtiter plate dilution MIC, E. coli; format: cell-based; details: Escherichia coli, ATCC10798; ATCC 10798, 24 h, 100% inhibition; read-out: Minimum inhibitory concentration (MIC) E.c
Description: as §1, §2, §3

[3] = test system: Methicillin resistant Staphylococcus aureus (MRSA); assay: Microtiter plate dilution MIC, MRSA; format: cell-based; details: Staphylococcus aureus, MRSA; clinical isolate, 24 h, 100% inhibition; read-out: Minimum inhibitory concentration (MIC) MRSA
Description: as §1, §2, §3

Bacillus cereus = assay: Scanning electron microscopy of Bacillus cereus cells; format: cell-based; details: 62.5 µg/mL, 24 h
Description: as §4

For `COc1cc(-c2oc3cc(O)cc(O)c3c(=O)c2OC)ccc1O` [3,3′-di-O-Methylquercetin], the MIC (Candida albicans) was 250 mg/L (≈ 757 µM), the “Cytomorphological alterations (scanning electron microscopy)” value (MCF-7 cells [1]) was “cell shrinkage, membrane blebbing, loss of contact with neighboring cells, and formation of apoptotic bodies” and the IC50 (MCF-7 cells [2]) was 10.1 ± 1.15 mg/L (≈ 30.6 µM). It also gave an IC50 (Vero cells) greater than 150 mg/L, an MIC (Escherichia coli) greater than 250 mg/L and an MIC [3] of 250 mg/L (≈ 757 µM). The “Morphological changes of bacterial cells (scanning electron microscopy)” value (Bacillus cereus) was “induced damage in bacterial cell walls and cytoplasmic membranes” and the “Morphological changes of bacterial cells (scanning electron microscopy)” value (Bacillus cereus; listed as 3,3′-di-O-methylquercetin) was “Damages on both the bacterial cell wall and the cytoplasmic membrane; also recorded: Leakage of intracellular constituents”.
